Measured values published in the kinase profiling compilation of Christmann-Franck et al. (2016).

Columns and labels:
Assay in all cases: radiometric filter-binding kinase assay
CDK2 CCNA2 (human) = CDK2 CCNA2 (human) (UniProt P20248+P24941); details: compound 10.0 µM
ROCK2 (rat) = details: accession and sequence are those of the human protein
MELK (human) = MELK (human) (UniProt Q14680)
MKNK1 (human) = MKNK1 (human) (UniProt Q9BUB5)
LCK (mouse) = details: accession and sequence are those of the human protein
MAPK13 (human) = MAPK13 (human) (UniProt O15264)
MINK1 (human) = MINK1 (human) (UniProt Q8N4C8)
AURKB (human) = AURKB (human) (UniProt Q96GD4)
MKNK2 (human) = MKNK2 (human) (UniProt Q9HBH9)
MAPK1 (human) = MAPK1 (human) (UniProt P28482)
FGFR1 (human) = FGFR1 (human) (UniProt P11362)
MARK4 (human) = MARK4 (human) (UniProt Q96L34)
MAP2K2 (human) = MAP2K2 (human) (UniProt P36507)
SRC (human) = SRC (human) (UniProt P12931)
RPS6KA1 KD1 KD2 (human) = RPS6KA1 KD1 KD2 (human) (UniProt Q15418)
MAPKAPK3 (human) = MAPKAPK3 (human) (UniProt Q16644)
TTK (human) = TTK (human) (UniProt P33981)
DAPK1 (human) = DAPK1 (human) (UniProt P53355)

Sequence of RPS6KA1 KD1 KD2 (human) (Q15418 whole entry, looked up): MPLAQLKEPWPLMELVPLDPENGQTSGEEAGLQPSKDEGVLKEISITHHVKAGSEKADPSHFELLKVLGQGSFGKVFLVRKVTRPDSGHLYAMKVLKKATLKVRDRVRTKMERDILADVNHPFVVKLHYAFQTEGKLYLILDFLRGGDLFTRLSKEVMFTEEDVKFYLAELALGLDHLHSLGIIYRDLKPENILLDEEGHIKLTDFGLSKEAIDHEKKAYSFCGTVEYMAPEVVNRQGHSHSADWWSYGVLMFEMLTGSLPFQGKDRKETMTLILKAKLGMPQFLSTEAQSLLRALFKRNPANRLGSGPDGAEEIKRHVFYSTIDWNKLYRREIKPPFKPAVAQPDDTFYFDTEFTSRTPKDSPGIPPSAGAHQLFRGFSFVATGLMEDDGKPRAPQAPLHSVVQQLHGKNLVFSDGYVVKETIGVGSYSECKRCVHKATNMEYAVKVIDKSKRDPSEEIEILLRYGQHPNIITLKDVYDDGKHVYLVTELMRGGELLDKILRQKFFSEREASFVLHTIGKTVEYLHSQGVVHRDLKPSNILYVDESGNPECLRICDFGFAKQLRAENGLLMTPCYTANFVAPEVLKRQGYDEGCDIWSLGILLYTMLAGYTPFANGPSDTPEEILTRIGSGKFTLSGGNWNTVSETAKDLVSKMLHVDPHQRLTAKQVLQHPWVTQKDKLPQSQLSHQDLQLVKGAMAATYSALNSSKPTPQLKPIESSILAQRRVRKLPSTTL
Sequence of AURKB (human) (Q96GD4 whole entry, looked up): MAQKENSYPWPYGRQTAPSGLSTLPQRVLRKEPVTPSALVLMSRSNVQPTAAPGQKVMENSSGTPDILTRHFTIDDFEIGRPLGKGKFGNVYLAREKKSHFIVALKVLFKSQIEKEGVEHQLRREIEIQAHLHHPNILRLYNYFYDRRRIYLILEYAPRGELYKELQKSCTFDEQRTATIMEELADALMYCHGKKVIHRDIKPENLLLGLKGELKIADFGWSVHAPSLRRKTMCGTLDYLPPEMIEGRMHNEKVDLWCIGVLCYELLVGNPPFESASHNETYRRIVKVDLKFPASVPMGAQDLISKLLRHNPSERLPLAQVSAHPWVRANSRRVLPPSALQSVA
Sequence of MAPK1 (human) (P28482 whole entry, looked up): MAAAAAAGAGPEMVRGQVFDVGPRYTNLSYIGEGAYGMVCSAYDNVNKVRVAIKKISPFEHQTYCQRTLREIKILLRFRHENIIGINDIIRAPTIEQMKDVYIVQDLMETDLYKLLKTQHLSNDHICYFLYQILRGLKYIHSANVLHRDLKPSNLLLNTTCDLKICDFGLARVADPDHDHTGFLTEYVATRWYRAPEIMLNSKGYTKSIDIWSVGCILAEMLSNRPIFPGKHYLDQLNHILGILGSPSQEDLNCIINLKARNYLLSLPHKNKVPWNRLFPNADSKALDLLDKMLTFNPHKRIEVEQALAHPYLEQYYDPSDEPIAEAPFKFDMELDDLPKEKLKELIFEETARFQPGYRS
Sequence of FGFR1 (human) (P11362 whole entry, looked up): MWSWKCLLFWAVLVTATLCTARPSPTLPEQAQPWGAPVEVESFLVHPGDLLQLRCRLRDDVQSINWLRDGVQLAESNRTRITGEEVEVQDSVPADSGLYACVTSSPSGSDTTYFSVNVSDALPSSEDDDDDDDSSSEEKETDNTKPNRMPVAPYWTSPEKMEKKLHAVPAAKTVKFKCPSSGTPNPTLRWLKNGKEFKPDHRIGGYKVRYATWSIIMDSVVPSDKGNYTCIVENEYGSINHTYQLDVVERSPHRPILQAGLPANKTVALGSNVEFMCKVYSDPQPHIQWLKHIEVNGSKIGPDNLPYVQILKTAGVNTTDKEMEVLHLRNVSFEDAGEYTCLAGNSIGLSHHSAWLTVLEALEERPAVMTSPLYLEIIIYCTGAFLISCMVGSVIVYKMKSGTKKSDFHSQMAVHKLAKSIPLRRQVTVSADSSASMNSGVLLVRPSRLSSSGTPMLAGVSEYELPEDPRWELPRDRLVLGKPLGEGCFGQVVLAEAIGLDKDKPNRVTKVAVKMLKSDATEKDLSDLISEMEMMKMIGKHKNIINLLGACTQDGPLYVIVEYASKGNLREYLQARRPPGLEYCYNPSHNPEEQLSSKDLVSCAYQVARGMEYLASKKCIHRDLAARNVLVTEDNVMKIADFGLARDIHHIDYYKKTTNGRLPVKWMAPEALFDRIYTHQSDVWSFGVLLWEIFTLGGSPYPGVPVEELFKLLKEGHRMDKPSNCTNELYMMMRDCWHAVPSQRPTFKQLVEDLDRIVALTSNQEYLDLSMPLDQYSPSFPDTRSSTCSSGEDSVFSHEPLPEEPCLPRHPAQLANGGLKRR
Sequence of MINK1 (human) (Q8N4C8 whole entry, looked up): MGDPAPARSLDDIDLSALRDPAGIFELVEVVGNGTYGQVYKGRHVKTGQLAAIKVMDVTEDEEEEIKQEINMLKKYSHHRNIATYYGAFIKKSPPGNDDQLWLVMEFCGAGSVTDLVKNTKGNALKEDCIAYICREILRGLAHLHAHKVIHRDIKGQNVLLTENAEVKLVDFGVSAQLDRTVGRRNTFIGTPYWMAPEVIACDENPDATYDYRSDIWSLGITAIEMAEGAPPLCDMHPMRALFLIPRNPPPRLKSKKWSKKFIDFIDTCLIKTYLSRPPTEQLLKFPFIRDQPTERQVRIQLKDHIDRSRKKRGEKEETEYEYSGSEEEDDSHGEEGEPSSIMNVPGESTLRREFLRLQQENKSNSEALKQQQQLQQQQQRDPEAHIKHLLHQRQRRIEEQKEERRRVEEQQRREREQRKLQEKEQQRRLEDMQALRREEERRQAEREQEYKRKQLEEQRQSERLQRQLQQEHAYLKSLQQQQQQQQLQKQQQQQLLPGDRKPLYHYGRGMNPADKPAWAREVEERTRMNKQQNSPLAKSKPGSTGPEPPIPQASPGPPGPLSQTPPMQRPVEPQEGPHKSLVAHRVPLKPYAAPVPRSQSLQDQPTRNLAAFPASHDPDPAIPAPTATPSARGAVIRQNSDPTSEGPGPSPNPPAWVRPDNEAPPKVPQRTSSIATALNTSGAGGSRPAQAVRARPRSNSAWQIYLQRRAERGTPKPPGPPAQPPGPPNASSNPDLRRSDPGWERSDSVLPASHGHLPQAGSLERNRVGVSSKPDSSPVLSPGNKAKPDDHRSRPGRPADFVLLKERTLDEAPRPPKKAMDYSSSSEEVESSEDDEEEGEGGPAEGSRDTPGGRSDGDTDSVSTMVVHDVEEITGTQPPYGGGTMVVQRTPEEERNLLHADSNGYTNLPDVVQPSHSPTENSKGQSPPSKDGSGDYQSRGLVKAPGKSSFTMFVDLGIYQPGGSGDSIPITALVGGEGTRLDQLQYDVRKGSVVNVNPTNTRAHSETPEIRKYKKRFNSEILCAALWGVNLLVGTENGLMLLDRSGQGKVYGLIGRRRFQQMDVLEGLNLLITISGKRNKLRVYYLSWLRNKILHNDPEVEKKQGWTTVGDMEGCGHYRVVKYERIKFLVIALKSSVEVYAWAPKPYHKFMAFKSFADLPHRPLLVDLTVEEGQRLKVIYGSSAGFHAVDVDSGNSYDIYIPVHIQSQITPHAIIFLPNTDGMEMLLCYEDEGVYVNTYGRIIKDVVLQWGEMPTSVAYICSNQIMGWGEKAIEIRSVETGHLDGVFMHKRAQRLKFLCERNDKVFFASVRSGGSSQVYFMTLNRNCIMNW
Sequence of MAP2K2 (human) (P36507 whole entry, looked up): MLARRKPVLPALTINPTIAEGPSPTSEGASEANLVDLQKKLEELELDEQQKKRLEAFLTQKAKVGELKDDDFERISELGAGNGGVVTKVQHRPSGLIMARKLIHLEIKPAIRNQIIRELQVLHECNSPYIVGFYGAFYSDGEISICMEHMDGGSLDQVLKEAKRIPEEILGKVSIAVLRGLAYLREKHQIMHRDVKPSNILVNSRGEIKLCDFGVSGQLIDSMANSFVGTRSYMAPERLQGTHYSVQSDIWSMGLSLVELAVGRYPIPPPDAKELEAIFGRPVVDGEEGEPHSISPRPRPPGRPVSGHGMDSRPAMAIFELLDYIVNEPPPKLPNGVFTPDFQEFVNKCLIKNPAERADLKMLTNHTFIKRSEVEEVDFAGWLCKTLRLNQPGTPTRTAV
Sequence of MAPKAPK3 (human) (Q16644 whole entry, looked up): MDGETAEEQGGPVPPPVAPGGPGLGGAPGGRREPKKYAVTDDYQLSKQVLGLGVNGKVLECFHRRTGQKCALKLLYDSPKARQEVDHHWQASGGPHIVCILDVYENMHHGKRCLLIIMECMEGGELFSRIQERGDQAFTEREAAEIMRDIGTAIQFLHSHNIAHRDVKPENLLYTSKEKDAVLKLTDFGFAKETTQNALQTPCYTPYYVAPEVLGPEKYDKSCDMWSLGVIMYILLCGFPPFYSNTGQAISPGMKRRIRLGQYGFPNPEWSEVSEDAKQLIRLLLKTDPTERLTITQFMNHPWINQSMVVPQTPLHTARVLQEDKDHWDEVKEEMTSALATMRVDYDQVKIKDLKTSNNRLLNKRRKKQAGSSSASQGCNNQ
Sequence of MAPK13 (human) (O15264 whole entry, looked up): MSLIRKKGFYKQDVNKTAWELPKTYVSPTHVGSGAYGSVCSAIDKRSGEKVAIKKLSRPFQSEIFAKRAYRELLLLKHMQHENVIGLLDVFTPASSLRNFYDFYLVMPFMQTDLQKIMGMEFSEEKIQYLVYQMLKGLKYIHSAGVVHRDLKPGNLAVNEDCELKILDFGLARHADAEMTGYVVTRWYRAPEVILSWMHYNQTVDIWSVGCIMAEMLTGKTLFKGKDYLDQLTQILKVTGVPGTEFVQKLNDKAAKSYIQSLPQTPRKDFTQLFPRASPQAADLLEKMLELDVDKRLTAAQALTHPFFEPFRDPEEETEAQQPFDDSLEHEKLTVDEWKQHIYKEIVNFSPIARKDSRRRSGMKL

Compound: c1ccc2c(-c3cnn4cc(-c5ccc(N6CCNCC6)cc5)cnc34)ccnc2c1
- residual activity (CDK2 CCNA2 (human)): 34%
- residual activity (ROCK2 (rat); compound 0.1 µM): 98%
- residual activity (ROCK2 (rat); compound 1.0 µM): 86%
- residual activity (ROCK2 (rat); compound 10.0 µM): 85%
- residual activity (MELK (human); compound 0.1 µM): 81%
- residual activity (MELK (human); compound 1.0 µM): 54%
- residual activity (MELK (human); compound 10.0 µM): 18%
- residual activity (MKNK1 (human); compound 0.1 µM): 82%
- residual activity (MKNK1 (human); compound 1.0 µM): 63%
- residual activity (MKNK1 (human); compound 10.0 µM): 39%
- residual activity (LCK (mouse); compound 0.1 µM): 81%
- residual activity (LCK (mouse); compound 1.0 µM): 40%
- residual activity (LCK (mouse); compound 10.0 µM): 7%
- residual activity (MAPK13 (human); compound 0.1 µM): 89%
- residual activity (MAPK13 (human); compound 1.0 µM): 110%
- residual activity (MAPK13 (human); compound 10.0 µM): 72%
- residual activity (MINK1 (human); compound 0.1 µM): 74%
- residual activity (MINK1 (human); compound 1.0 µM): 15%
- residual activity (MINK1 (human); compound 10.0 µM): 4%
- residual activity (AURKB (human); compound 0.1 µM): 95%
- residual activity (AURKB (human); compound 1.0 µM): 76%
- residual activity (AURKB (human); compound 10.0 µM): 47%
- residual activity (MKNK2 (human); compound 0.1 µM): 90%
- residual activity (MKNK2 (human); compound 1.0 µM): 60%
- residual activity (MKNK2 (human); compound 10.0 µM): 34%
- residual activity (MAPK1 (human); compound 0.1 µM): 89%
- residual activity (MAPK1 (human); compound 1.0 µM): 89%
- residual activity (MAPK1 (human); compound 10.0 µM): 107%
- residual activity (FGFR1 (human); compound 0.1 µM): 69%
- residual activity (FGFR1 (human); compound 1.0 µM): 20%
- residual activity (FGFR1 (human); compound 10.0 µM): 8%
- residual activity (MARK4 (human); compound 0.1 µM): 75%
- residual activity (MARK4 (human); compound 1.0 µM): 58%
- residual activity (MARK4 (human); compound 10.0 µM): 24%
- residual activity (MAP2K2 (human); compound 0.1 µM): 88%
- residual activity (MAP2K2 (human); compound 1.0 µM): 91%
- residual activity (MAP2K2 (human); compound 10.0 µM): 52%
- residual activity (SRC (human); compound 1.0 µM): 52%
- residual activity (SRC (human); compound 10.0 µM): 16%
- residual activity (RPS6KA1 KD1 KD2 (human); compound 0.1 µM): 86%
- residual activity (RPS6KA1 KD1 KD2 (human); compound 1.0 µM): 79%
- residual activity (RPS6KA1 KD1 KD2 (human); compound 10.0 µM): 29%
- residual activity (MAPKAPK3 (human); compound 0.1 µM): 80%
- residual activity (MAPKAPK3 (human); compound 1.0 µM): 79%
- residual activity (MAPKAPK3 (human); compound 10.0 µM): 86%
- residual activity (TTK (human); compound 0.1 µM): 89%
- residual activity (TTK (human); compound 1.0 µM): 101%
- residual activity (TTK (human); compound 10.0 µM): 61%
- residual activity (DAPK1 (human); compound 0.1 µM): 89%
- residual activity (DAPK1 (human); compound 1.0 µM): 91%
- residual activity (DAPK1 (human); compound 10.0 µM): 72%
